Source: patent US20260262643A1, “HERBICIDAL BENZOXAZINES” (FMC CORPORATION, priority 2022, published 2026)

Experiments:
[1] = system: barnyardgrass; experiment: Test A preemergence; type: in vivo, Echinochloa crusgalli; conditions: 1000 g ai/ha, 0 to 100 scale (0 no effect, 100 complete control), 10 days
In short: (§1)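 Visual injury ratings on a 0–100 scale (100 = complete control) versus untreated controls, taken 10 days after treatment in greenhouse. Preemergence: directed soil spray onto seeded loam/sand. Postemergence: foliar application at one- to two-leaf stage, plants 2–10 cm. Formulation: non-phytotoxic solvent plus surfactant.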

[2] = system: ragweed; experiment: Test A postemergence; type: in vivo, Ambrosia artemisiifolia; conditions: 1000 g ai/ha, Postemergence; 0 to 100 scale
In short: as §1

[3] = system: ryegrass, Italian; experiment: Test A postemergence; type: in vivo, Lolium multiflorum; conditions: 1000 g ai/ha, Postemergence; 0 to 100 scale
In short: as §1

[4] = system: corn; experiment: Test A postemergence; type: in vivo, Zea mays; conditions: 1000 g ai/ha, Postemergence; 0 to 100 scale
In short: as §1

[5] = system: ryegrass, Italian; experiment: Test A preemergence; type: in vivo, Lolium multiflorum; conditions: 1000 g ai/ha, 0 to 100 scale (0 no effect, 100 complete control), 10 days
In short: as §1

[6] = system: Pigweed, Redroot; experiment: Test A preemergence; type: in vivo, Amaranthus retroflexus; conditions: 1000 g ai/ha, 0 to 100 scale (0 no effect, 100 complete control), 10 days
Text: (§2) Seeds of plant species selected from barnyardgrass (Echinochloa crusgalli), blackgrass (Alopecurus myosuroides), corn (Zea mays), foxtail, giant (giant foxtail, Setaria faberi), goosegrass (Eleusine indica), kochia (Bassia scoparia), oat, wild (wild oat, Avena fatua), pigweed, palmer (palmer amaranth, palmer pigweed, Amaranthus palmeri), Pigweed, Redroot (redroot pigweed, Amaranthus retroflexus), ragweed (common ragweed, Ambrosia artemisiifolia), ryegrass, Italian (italian ryegrass, Lolium multiflorum), soybean (Glycine max), and wheat (Triticum aestivum) were planted into a blend of loam soil and sand and treated preemergence with a directed soil spray using test chemicals formulated in a non-phytotoxic solvent mixture which included a surfactant. At the same time, plants selected from these crops and weed species and also galium (catchweed bedstraw, Galium aparine) and horseweed (Erigeron canadensis) were planted in pots containing the same blend of loam soil and sand and treated with postemergence applications of test chemicals formulated in the same manner. Plants ranged in height from 2 to 10 cm and were in the one- to two-leaf stage for the postemergence treatment. Treated plants and untreated controls were maintained in a greenhouse for 10 days, after which time all treated plants were compared to untreated controls and visually evaluated for injury. Plant response ratings, summarized in Table A, are based on a 0 to 100 scale where 0 is no effect and 100 is complete control. A dash (-) response means no test result.

[7] = system: kochia; experiment: Test A postemergence; type: in vivo, Bassia scoparia; conditions: 1000 g ai/ha, Postemergence; 0 to 100 scale
In short: as §1

[8] = system: foxtail, giant; experiment: Test A preemergence; type: in vivo, Setaria faberi; conditions: 1000 g ai/ha, 0 to 100 scale (0 no effect, 100 complete control), 10 days
In short: as §1

[9] = system: Pigweed, Redroot; experiment: Test A postemergence; type: in vivo, Amaranthus retroflexus; conditions: 1000 g ai/ha, Postemergence; 0 to 100 scale
Text: as §2

[10] = system: kochia; experiment: Test A preemergence; type: in vivo, Bassia scoparia; conditions: 1000 g ai/ha, 0 to 100 scale (0 no effect, 100 complete control), 10 days
In short: as §1

[11] = system: blackgrass; experiment: Test A postemergence; type: in vivo, Alopecurus myosuroides; conditions: 1000 g ai/ha, Postemergence; 0 to 100 scale
In short: as §1

[12] = system: barnyardgrass; experiment: Test A postemergence; type: in vivo, Echinochloa crusgalli; conditions: 1000 g ai/ha, Postemergence; 0 to 100 scale
In short: as §1

[13] = system: wheat; experiment: Test A postemergence; type: in vivo, Triticum aestivum; conditions: 1000 g ai/ha, Postemergence; 0 to 100 scale
In short: as §1

[14] = system: ragweed; experiment: Test A preemergence; type: in vivo, Ambrosia artemisiifolia; conditions: 1000 g ai/ha, 0 to 100 scale (0 no effect, 100 complete control), 10 days
In short: as §1

[15] = system: galium; experiment: Test A postemergence; type: in vivo, Galium aparine; conditions: 1000 g ai/ha, Postemergence; 0 to 100 scale
In short: as §1

[16] = system: foxtail, giant; experiment: Test A postemergence; type: in vivo, Setaria faberi; conditions: 1000 g ai/ha, Postemergence; 0 to 100 scale
In short: as §1

[17] = system: ducksalad; experiment: Test B flooded paddy test; type: in vivo, Heteranthera limosa; conditions: 250 g ai/ha, Flood, 13 days, 0 to 100 scale (0 no effect, 100 complete control)
In short: (§3)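 2-leaf stage; pots flooded 3 cm over soil; compound dosed into paddy water; depth kept constant. Greenhouse, 13 d. Visual rating vs controls, 0 (no effect)–100 (complete control). Dash = no result.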

[18] = system: barnyardgrass; experiment: Test B flooded paddy test; type: in vivo, Echinochloa crus-galli; conditions: 250 g ai/ha, Flood, 13 days, 0 to 100 scale (0 no effect, 100 complete control)
In short: as §3

[19] = system: rice; experiment: Test B flooded paddy test; type: in vivo, Oryza sativa; conditions: 250 g ai/ha, Flood, 13 days, 0 to 100 scale (0 no effect, 100 complete control)
In short: as §3

[20] = system: sedge, umbrella; experiment: Test B flooded paddy test; type: in vivo, Cyperus difformis; conditions: 250 g ai/ha, Flood, 13 days, 0 to 100 scale (0 no effect, 100 complete control)
In short: as §3

Row | Compound | Plant response rating, Barnyardgrass [1] | Plant response rating, Ragweed [2] | Plant response rating, Ryegrass, Italian [3] | Plant response rating, Corn [4] | Plant response rating, Ryegrass, Italian [5] | Plant response rating, Pigweed, Redroot [6] | Plant response rating, Kochia [7] | Plant response rating, Foxtail, Giant [8] | Plant response rating, Pigweed, Redroot [9] | Plant response rating, Kochia [10] | Plant response rating, Blackgrass [11] | Plant response rating, Barnyardgrass [12] | Plant response rating, Wheat [13] | Plant response rating, Ragweed [14] | Plant response rating, Galium [15] | Plant response rating, Foxtail, Giant [16] | Plant response rating, Ducksalad [17] | Plant response rating, Barnyardgrass [18] | Plant response rating, Rice [19] | Plant response rating, Sedge, Umbrella [20]
1 | CCC1CN(C(=O)c2ccnc(-n3cncn3)c2)c2cccc(I)c2O1 (centres unmarked) [Compound 17] | 0 | 0 | 0 | 0 | 0 | 100 | 10 | 0 | 0 | 30 | 0 | 0 | 0 | 0 | 0 | 0 | – | – | – | –
2 | CCCC1CN(C(=O)c2ccnc(-n3cncn3)c2)c2cccc(Cl)c2O1 (centres unmarked) [Compound 2] | 60 | – | – | – | 60 | 20 | – | 100 | – | 0 | – | – | – | 0 | – | – | – | – | – | –
3 | CC1CN(C(=O)c2ccnc(-n3cncn3)c2)c2cccc(Cl)c2O1 (centres unmarked) [Compound 1] | 80 | – | – | – | 90 | 40 | – | 100 | – | 40 | – | – | – | 80 | – | – | 0 | 0 | 0 | 0
4 | CC1CN(C(=O)c2cccc(-n3cncn3)c2)c2cc(F)ccc2O1 (centres unmarked) [Compound 24] | 50 | 0 | 60 | 10 | 100 | 0 | 10 | 30 | 0 | 0 | 60 | 30 | 30 | 0 | – | 50 | – | – | – | –
5 | CCC1CN(C(=O)c2ccnc(-n3cncn3)c2)c2cc(Cl)ccc2O1 (centres unmarked) [Compound 12] | 0 | – | – | – | 0 | 0 | – | 20 | – | 0 | – | – | – | 0 | – | – | – | – | – | –
6 | CC1CN(C(=O)c2ccnc(-n3cncn3)c2)c2cccc(Cl)c2O1 (centres unmarked) [Compound 9] | 0 | – | – | – | 0 | 0 | – | 0 | – | 0 | – | – | – | 0 | – | – | – | – | – | –
7 | CC1CN(C(=O)c2ccnc(-n3cncn3)c2)c2ccccc2O1 (centres unmarked) [Compounds 8] | 0 | – | – | – | 40 | 10 | – | 90 | – | 50 | – | – | – | 0 | – | – | – | – | – | –
8 | CCC1CN(C(=O)c2ccnc(-n3cncn3)c2)c2cccc(Br)c2O1 (centres unmarked) [Compound 13] | 0 | – | – | – | 30 | 50 | – | 90 | – | 60 | – | – | – | 0 | – | – | – | – | – | –
